Reference: patent publication US9926347B2, “Methods for engineering sugar transporter preferences” (Board of Regents, The University of Texas System, priority 2013, dated 2018)
Where a chain is given by its changes, count along the chain named. Numbers in names are those of the source. Entries after “also recorded” stand apart in the source; their conditions may differ.

Experiments:
[1] = target: Candida intermedia GXS1 variant Phe38 Ile39 Met40 (F38I39M40; motif G-G-F-I-M-G, SEQ ID NO: 4; parent GXS1 SEQ ID NO: 1) (Sungouiella intermedia, UniProt Q2MEV7, F40M/L39I/V38F); type: cell-based; conditions: glucose at levels of 5 g/L; S. cerevisiae EX.12
Method: Growth rate measurements—All exponential growth rates were measured and calculated according to the method previously described using a Bioscreen C (Growth Curves USA, Piscataway, N.J.) and a MATLAB script. The Bioscreen C measures online optical density for easy and accurate measurement of the growth curves of up to 200 strains at one time. Error was calculated based on biological triplicate in all cases. In all cases, the Bioscreen C was set to maintain a temperature of 30° C., employ high continuous shaking, and to measure optical density every 10 minutes. A single carbon source per well was used in all experiments save one.

[2] = target: T1, Candida intermedia GXS1 variant Phe38 Ile39 Met40 (F38I39M40; V38F/L39I/F40M; motif G-G-F-I-M-G, SEQ ID NO: 4; parent GXS1 SEQ ID NO: 1) (Sungouiella intermedia, UniProt Q2MEV7, F40M/L39I/V38F); assay: Radiolabeled xylose uptake kinetics, gxs1 Phe38 Ile39 Met40 triple mutant; type: cell-based
T1 construct: 14C-xylose uptake
T1 sequence (Q2MEV7 1-522 V38F/L39I/F40M): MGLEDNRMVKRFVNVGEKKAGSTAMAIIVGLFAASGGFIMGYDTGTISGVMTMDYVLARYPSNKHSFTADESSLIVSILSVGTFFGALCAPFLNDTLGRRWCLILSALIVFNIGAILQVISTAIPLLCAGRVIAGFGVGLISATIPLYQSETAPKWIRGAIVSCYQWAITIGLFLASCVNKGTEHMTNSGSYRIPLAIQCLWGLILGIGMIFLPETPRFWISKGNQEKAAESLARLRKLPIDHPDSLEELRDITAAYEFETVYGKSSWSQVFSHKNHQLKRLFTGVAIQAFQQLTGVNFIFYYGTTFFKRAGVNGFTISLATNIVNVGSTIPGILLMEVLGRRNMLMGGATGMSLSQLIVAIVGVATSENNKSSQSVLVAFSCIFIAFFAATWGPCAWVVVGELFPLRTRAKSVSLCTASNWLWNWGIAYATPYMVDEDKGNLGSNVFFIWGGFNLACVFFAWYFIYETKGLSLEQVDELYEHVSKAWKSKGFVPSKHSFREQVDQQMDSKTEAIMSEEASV
Method: (§1) Radiolabelled xylose uptake experiments were performed to quantify the improvement of transport kinetics in the Phe^38 Ile^39 Met^40 triple mutant. […] An increased KM was observed as well (FIG. 5E), a phenotype observed in previous efforts to engineer this transporter (38). Nevertheless, the binding affinity is still quite high for practical culturing at a value corresponding to around 0.1 g/L (Table 2).
(§2) Strains, media, and plasmids—Molecular cloning and standard culturing techniques with E. coli DH10B were performed according to Sambrook (46). S. cerevisiae EX.12 was used for all yeast experiments and was constructed as previously described (38). All transporters were cloned into p414-TEF, a standard yeast shuttle vector created by Mumberg (47). Yeast synthetic complete media was used for culture and experimental growth media. CSM-Trp was used when S. cerevisiae EX.12 was carrying a transporter. Carbon sources were provided at 20 g/L.
(§3) Radiolabeled xylose uptake—Uptake of ^14C labeled xylose was used to determine the Michaelis-Menten parameters for C. intermedia GXS1 and the Phe^38 Ile^39 Met^40 triple mutant. The method was performed as previously described (38).

[3] = target: T2, Candida intermedia GXS1 transporter protein, wild type, SEQ ID NO: 1 (Sungouiella intermedia, UniProt Q2MEV7); assay: Radiolabeled xylose uptake kinetics, wild type GXS1; type: cell-based; conditions: gene in p414-TEF, S. cerevisiae EX.12
T2 construct: 14C-xylose uptake
T2 sequence (Q2MEV7 1-522): T1 sequence (Q2MEV7 1-522 V38F/L39I/F40M) with F38V, I39L, M40F
Method: as §1, §2, §3

[4] = test system: Candida intermedia GXS1 variant Phe38 Ile39 Met40 (F38I39M40; V38F/L39I/F40M; motif G-G-F-I-M-G, SEQ ID NO: 4; parent GXS1 SEQ ID NO: 1); assay: Radiolabeled xylose uptake kinetics, gxs1 Phe38 Ile39 Met40 triple mutant; type: cell-based; conditions: triple mutant versus wild type GXS1
Method: as §1, §2, §3

[5] = substrate: OC1OC[C@@H](O)[C@H](O)[C@H]1O; assay: as above; type: cell-based
Method: as §1, §2, §3

[6] = substrate: OC1OC[C@@H](O)[C@H](O)[C@H]1O; assay: Radiolabeled xylose uptake kinetics, wild type GXS1; type: cell-based, Candida intermedia; conditions: other: radiolabeled xylose uptake; gene in p414-TEF; S. cerevisiae EX.12
Method: as §1, §2, §3

Molecule: OC[C@H]1OC(O)[C@H](O)[C@@H](O)[C@@H]1O (stereo partly shown) [glucose]
- inhibition of xylose growth by glucose [1]: still appear to inhibit xylose growth
- radiolabelled xylose uptake in the presence of glucose (inhibition by glucose) ([2]; glucose concentration not stated): no radiolabelled xylose uptake was detected

Molecule: OC1OC[C@@H](O)[C@H](O)[C@H]1O (stereo partly shown) [xylose]
- VMAX (xylose) [3]: 7.23 ± 0.6 nmol min^−1 gDCW^−1
- KM change compared to wild type (xylose) [4]: increased KM; also recorded: significantly increased
- Vmax change compared to wild type (xylose) [4]: doubling in Vmax
- VMAX (xylose) ([2]; radiolabeled xylose uptake, gene in p414-TEF, S. cerevisiae EX.12): 15.01 ± 2.38 nmol min^−1 gDCW^−1
- Km ([2]; read-out: binding affinity / KM (xylose), as g/L, conversion of KM): ~666 µM

B1: Candida intermedia GXS1 variant Phe38 Ile39 Met40 (F38I39M40; V38F/L39I/F40M; motif G-G-F-I-M-G, SEQ ID NO: 4; parent GXS1 SEQ ID NO: 1) (Sungouiella … (protein)
chain: T1 sequence (Q2MEV7 1-522 V38F/L39I/F40M)
notes: 14C-xylose uptake
- Km ([5]; other: conversion of KM): 0.1 g/L
- Km ([5]; other: radiolabeled xylose uptake, gene in p414-TEF, S. cerevisiae EX.12): 721 ± 116 µM

B2: Candida intermedia GXS1 transporter protein, wild type, SEQ ID NO: 1 (Sungouiella intermedia) (protein)
chain: T1 sequence (Q2MEV7 1-522 V38F/L39I/F40M) with F38V, I39L, M40F
notes: 14C-xylose uptake
- Km [6]: 25.6 ± 65.9 µM
